Data set [1] has as its system MCF7. The data set can be described thus: Cytotoxicity against human MCF7 cells after 3 days by SRB assay. It counts as functional, cell-based. Background: In SRB staining, fixed cells bind dye roughly in proportion to their protein.
The test system of data set [2] is A549. Put plainly: Cytotoxicity against human A549 cells after 3 days by SRB assay. Type of data set: functional, cell-based.
For data set [3], the system named is H9. The data set can be described thus: Cytotoxicity against human H9 cells. It counts as cell-based.
Data set [4] deals with Human immunodeficiency virus. The data set can be described thus: Antiviral activity against HIV infected in human H9 cells. Type of data set: functional, organism-based. Particulars: Human immunodeficiency virus 1, H9.
A short description of data set [5]: Therapeutic index, ratio of IC50 for human H9 cells to EC50 for HIV. Particulars: read-out: Ratio IC50/EC50. It counts as cell-based.

Converted amounts (≈) assume the structure as drawn. The source made the active and inactive calls. The rule behind the calls is not given here.

In the case of `COc1cc(/C=C/C(=O)NCCc2ccc(O[C@@H]3O[C@H](CO)[C@@H](O)[C@H](O)[C@H]3O)c(OC)c2)ccc1O[C@@H]1O[C@H](CO)[C@@H](O)[C@H](O)[C@H]1O`, the outcome in data set [1] and in data set [2] was inactive.
For `O=C(O)c1cc2c(c3c1ccc1ccccc13)OCO2`, the result in data set [1] and in data set [2] was inactive.
Broadly, the IC50 is the midpoint of a concentration-inhibition curve. The EC50 is the concentration at which the effect is half-maximal. A low value points to greater potency. `CC1=C2OC(C)(C)c3c(O)cc(C)c(c32)C(=O)C1=O` [DEHYDROOXOPEREZINONE] showed a concentration for half-maximal inhibition (IC50) in data set [3] of 25.1 µg/mL (≈ 97.2 µM). In data set [4], this molecule came in with an EC50 of 17.5 µg/mL (≈ 67.8 µM). Further, the outcome in data set [1] and in data set [2] was inactive. For the same molecule, the selectivity ratio in data set [5] was determined as 1.43.

Source of the values: ChEMBL document CHEMBL1146558, “Constituents from the stems of Aristolochia manshuriensis” (J Nat Prod, 2003).
